How the values were obtained:
Male CD (SD) IGS rats = test: Increasing urethral pressure measuring system under anesthesia of rat with urethane; assay type: in vivo; details: i.v., urethane-anesthetized rat
Description: Male CD (SD) IGS rats (Charles River Japan Inc., 8-9 week-old in use) were anesthetized by subcutaneous administration of urethane (1.2 g/kg). After incision of cervical median, jugular catheter for administration of drug and arterial catheter for measurement of blood pressure were inserted. After incising of hypogastrium median, urethra was tied off in the vicinity of pubic bone. Urethra catheter was inserted into urethra by incision of dome of urinary bladder and fixed by ligation at the bladder neck. Urethra catheter was connected to the pressure tranducer and urethral pressure was measured. Subsequently, urethral pressure was adjusted about 20 mmHg and left until stabilizing (for about 20 minutes).

isolated urethra of rat = test: Contraction-measuring system using an isolated urethra of rat; details: Magnus tube, urethra strips, control high concentration KCl
Description: After sacrificing female or male CD (SD) IGS rats (Charles River Japan Inc., 8-9 week-old in use) by blowing heads and exsanguinating from carotid artery and jugular vein, urethra under pubis was isolated carefully and soaked in Krebs-Henseleit solution (112 mM NaCl, 5.9 mM KCl, 2.0 mM CaCl2, 1.2 mM MgCl2, 1.2 mM NaH2PO4, 25.0 mM NaHCO3, 11.5 mM Glucose) immediately. Urethra part was cut from isolated sample, and was dissected flatly and subsequently was cut parallel to circular muscle. Thus, 2-3 strips of sample that are 3-4 mm long by 2-3 mm wide were made from one animal.
The made samples were suspended in the Magnus tube (volume: 10 mL) filled by Krebs-Henseleit solution (vented by 37±1° C., mixed gas [95% O2+5% CO2]). The samples were added about 0.5 g tension and stabilized for 60 min, and subsequently the contractile activity was recorded on recorder (lincarcoder WR3320: GRAPHTEC CORP.) via a pressure amplifier (AP-621G: Nihon Kohden Ltd) from Force displacement transducer (FD pick-up TB-611T; Nihon Kohden Ltd).
The contractile reaction of control was given by stimulation of high concentration KCl solution (solution replaced all NaCl with KCl).

## CCCCC/C=C\C/C=C\CCCCCCCC(=O)OC[C@@H](O)COP(=O)([O-])[O-].[Na+].[Na+] [1-linoleoyl(18:2)-LPA, D(+)-sn-1-o-linoleoyl-glyceryl-3-phosphate. sodium salt, reference compound]
Male CD (SD) IGS rats; 0.3 mg/kg
  increase of urethral pressure: 0.6 mmHg
Male CD (SD) IGS rats; 1.0 mg/kg
  increase of urethral pressure: 0.8 mmHg

## CCCCC[C@@H]1O[C@@H]1C[C@H]1O[C@H]1CCCCCCCC(=O)OC[C@H](O)COP(=O)(O)O [Example 1-1]
Male CD (SD) IGS rats; 0.3 mg/kg
  increase of urethral pressure: 5.4 mmHg
Male CD (SD) IGS rats; 1.0 mg/kg
  increase of urethral pressure: 8.5 mmHg
Isolated urethra of rat
  contracting effect on the isolated urethra of rat: contracting effect

Reference: patent publication US7700792B2, “Highly active lysophosphatidic acid and method of screening therewith” (Ono Pharmaceutical Co., Ltd., priority 2003, dated 2010)
